From ChEMBL document CHEMBL1152033, “Spiro-piperidine non-peptide neurokinin-1 receptor antagonists” (Bioorg Med Chem Lett, 1995) come the findings set out here.

In this experiment the target is Substance-P receptor (Homo sapiens, UniProt P25103). Description: Binding affinity measured by displacement of tritiated radiolabeled substance P from cloned human NK1 receptor expressed in CHO cell membranes.

A value given as a limit tells only on which side of the number the result lay.

Sequence of Substance-P receptor (P25103 whole entry): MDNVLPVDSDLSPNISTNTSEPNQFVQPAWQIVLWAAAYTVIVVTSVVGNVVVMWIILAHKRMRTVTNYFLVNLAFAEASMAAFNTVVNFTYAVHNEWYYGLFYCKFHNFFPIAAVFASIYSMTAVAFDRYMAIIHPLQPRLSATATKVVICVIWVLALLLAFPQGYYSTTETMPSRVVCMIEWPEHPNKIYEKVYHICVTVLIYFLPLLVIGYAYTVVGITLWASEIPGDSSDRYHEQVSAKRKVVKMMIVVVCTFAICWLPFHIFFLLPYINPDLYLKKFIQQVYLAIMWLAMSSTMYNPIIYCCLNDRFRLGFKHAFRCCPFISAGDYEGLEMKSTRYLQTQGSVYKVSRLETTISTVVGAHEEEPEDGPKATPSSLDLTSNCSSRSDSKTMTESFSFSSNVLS

The Ki is a measure of affinity in units of concentration, obtained from inhibition or displacement. A lower Ki goes with tighter binding. In turn, `COc1ccccc1CN[C@H]1CCCN[C@]12CCc1ccccc12` showed a Ki of 39.8 nM.
`COc1ccccc1CN[C@H]1CCCN[C@@]12CCc1ccccc12` gave an inhibition constant (Ki) above 1000 nM.
